{"source": "ChEMBL document CHEMBL1134784", "about": "“Synthesis and screening for antiacetylcholinesterase activity of (1-benzyl-4-oxopiperidin-3-ylidene)methylindoles and -pyrroles related to donepezil” (J Med Chem, 2001)", "data": [{"target": "Acetylcholinesterase (Homo sapiens, UniProt P22303)", "sequence (P22303 whole entry)": "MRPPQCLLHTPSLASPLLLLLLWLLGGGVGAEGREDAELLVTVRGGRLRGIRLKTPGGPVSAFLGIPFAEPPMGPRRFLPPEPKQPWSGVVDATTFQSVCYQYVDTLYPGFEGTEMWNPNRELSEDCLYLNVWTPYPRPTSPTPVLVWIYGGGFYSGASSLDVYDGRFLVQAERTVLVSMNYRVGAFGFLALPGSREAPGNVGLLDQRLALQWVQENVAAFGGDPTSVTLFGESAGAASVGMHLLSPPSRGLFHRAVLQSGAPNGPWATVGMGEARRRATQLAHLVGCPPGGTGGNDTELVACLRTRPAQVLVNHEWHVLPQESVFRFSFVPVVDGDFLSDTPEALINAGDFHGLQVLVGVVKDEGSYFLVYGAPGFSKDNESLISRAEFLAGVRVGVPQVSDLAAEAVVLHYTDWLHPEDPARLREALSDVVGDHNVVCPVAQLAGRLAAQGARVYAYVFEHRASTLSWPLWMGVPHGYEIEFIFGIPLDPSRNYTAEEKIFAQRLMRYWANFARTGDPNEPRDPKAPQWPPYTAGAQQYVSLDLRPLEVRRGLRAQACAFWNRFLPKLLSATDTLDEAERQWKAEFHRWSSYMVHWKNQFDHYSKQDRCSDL", "units": {"IC50": "µM"}, "description": "Inhibitory concentration required against acetylcholinesterase activity", "values": [{"smiles": "O=C1CCN(Cc2ccccc2)C/C1=C\\c1ccn(C(=O)c2ccccc2)c1", "IC50": 30}, {"smiles": "O=C1CCN(Cc2ccccc2)C/C1=C\\c1cccn1C(=O)c1ccccc1", "IC50": 30}, {"smiles": "O=C1CCN(Cc2ccccc2)C/C1=C\\c1cn(C(=O)c2ccccc2)c2ccccc12", "IC50": 70}, {"smiles": "COc1ccc2[nH]cc(/C=C3\\CN(Cc4ccccc4)CCC3=O)c2c1", "IC50": 6}, {"smiles": "COc1ccc2c(c1)c(/C=C1\\CN(Cc3ccccc3)CCC1=O)cn2C(=O)c1ccccc1", "IC50": 80}, {"smiles": "O=C1CCN(Cc2ccccc2)C/C1=C\\c1cn(Cc2ccccc2)c2ccccc12", "IC50": "> 100"}, {"smiles": "O=C1CCN(Cc2ccccc2)C/C1=C\\c1cn(C(=O)c2ccc([N+](=O)[O-])cc2)c2ccccc12", "IC50": 50}, {"smiles": "CC(C)(C)OC(=O)n1cc(/C=C2\\CN(Cc3ccccc3)CCC2=O)c2ccccc21", "IC50": 30}, {"smiles": "O=C1/C(=C/c2ccc[nH]2)CN(Cc2ccccc2)C/C1=C\\c1ccc[nH]1", "IC50": 18}, {"smiles": "O=C1CCN(Cc2ccccc2)C/C1=C\\c1c[nH]c2ccc(OCc3ccccc3)cc12", "IC50": 25}, {"smiles": "O=C1CCN(Cc2ccccc2)C/C1=C\\c1cn(C(=O)c2ccc(Cl)cc2)c2ccccc12", "IC50": 50}, {"smiles": "O=C1/C(=C/c2cc[nH]c2)CN(Cc2ccccc2)C/C1=C\\c1cc[nH]c1", "IC50": 6}, {"smiles": "O=C1CCN(Cc2ccccc2)C/C1=C\\c1c[nH]c2ccccc12", "IC50": 8}, {"smiles": "Cc1[nH]c(C)c(/C=C2\\CN(Cc3ccccc3)CCC2=O)c1C=O", "IC50": 30}, {"smiles": "CC(=O)n1cc(/C=C2\\CN(Cc3ccccc3)CCC2=O)c2ccccc21", "IC50": 11}, {"smiles": "N#Cc1ccc(C(=O)n2cc(/C=C3\\CN(Cc4ccccc4)CCC3=O)c3ccccc32)cc1", "IC50": 20}, {"smiles": "O=C1CCN(Cc2ccccc2)C/C1=C\\c1ccc[nH]1", "IC50": 11}, {"smiles": "O=C1CCN(Cc2ccccc2)C/C1=C\\c1cc[nH]c1", "IC50": 6}, {"smiles": "COc1ccc(C(=O)n2cc(/C=C3\\CN(Cc4ccccc4)CCC3=O)c3ccccc32)cc1", "IC50": 70}, {"smiles": "O=C1CCN(Cc2ccccc2)C/C1=C\\c1cn(C(=O)c2ccc(F)cc2)c2ccccc12", "IC50": 60}]}]}
